Values quoted from earlier work in patent US10316053B2, “Flavonoid compounds and uses thereof” (ARMARON BIO PTY LTD, priority 2012, dated 2019).

System: myocardial ischaemia and reperfusion
Conditions: in vitro studies; Wang et al., Br J Pharmacol (2004) 142, 443-452

O=c1c(O)c(-c2ccc(O)c(O)c2)oc2ccccc12 [DiOHF, 3′,4′-dihydroxy flavonol]
infarct and injury associated with myocardial ischaemia and reperfusion: reduce infarct and injury
